Molecules are shown by their SMILES.

Usually Kd stands for the equilibrium constant for the complex coming apart.

The target in the first assay is T1, PD-L1 (Homo sapiens, UniProt Q9NZQ7). Nature of the assay: 1H NMR; KD stated (data not shown). The following applies: cited from earlier work. Format: binding. More on the design: gene CD274; ectodomain, PD-L1-long (amino acids 18–239).
T1 sequence (Q9NZQ7 18-239): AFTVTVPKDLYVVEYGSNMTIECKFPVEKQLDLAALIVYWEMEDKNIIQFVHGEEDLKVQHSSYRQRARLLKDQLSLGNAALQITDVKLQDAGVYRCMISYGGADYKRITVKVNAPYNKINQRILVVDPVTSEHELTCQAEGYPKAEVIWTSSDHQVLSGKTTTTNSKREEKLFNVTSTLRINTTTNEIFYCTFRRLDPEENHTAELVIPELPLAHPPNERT
With `CN1CCOc2cc(C#N)ccc21` [STD4], the Kd is 2.21 mM.

A further assay addresses T1, PD-L1. Nature of the assay: w-AIDA-NMR KD, 1H-15N HMQC NMR, 1H NMR, DSF. The class given is binding. Also on record: gene CD274; ectodomain, PD-L1-long (amino acids 18–239); PD-L1-short in 1H-15N HMQC.
Conditions: not given
Regarding `Cc1c(N)cccc1-c1cccc(N)c1C` [TAH35], the Kd is about 20 mM.

In a further assay the target is T1, PD-L1. Nature of the assay: 1H-15N HMQC NMR, w-AIDA-NMR KD, 1H NMR. The class given is binding. Also on record: gene CD274; ectodomain, PD-L1-long (amino acids 18–239); PD-L1-short in 1H-15N HMQC.
Conditions: not given
`OCc1cccc(-c2ccc3c(c2)OCCO3)c1Cl` [TAH4] gave a Kd of about 40 mM.

The next assay addresses T1, PD-L1. Nature of the assay: biochemical. The following applies: read-out: DSF (°C). Also on record: gene CD274. As to the method:
Fragments were screened in both techniques as singletons. […] The fragments were tested at a final concentration of 0.1 mM. […] DSF hits were defined as fragments, resulting in an increase or decrease in melting point of PD-L1 by at least 0.5 °C. […] Having the library in hand, we carried out screening using differential scanning fluorimetry and 1D NMR techniques. Previously, the fragment-based approach with a large library of compounds (>13 000) was tested on the PD-L1 V1 domain.[33] […] Therefore, instead of using a large fragment library, we assembled a focused library of fragments containing the biphenyl core extracted from known inhibitors. The obtained fragments were decorated with different substituents to test how these variations will affect the binding of biphenyl. The expression and purification protocol relate to work on PD-L1-short published earlier by us. Briefly, Escherichia coli strain BL21 (DE3) was transformed with a pET-21b plasmid carrying the PD-L1-long gene (amino acids 18–239). The bacteria were cultured in LB at 37 °C until OD600 nm of 0.8 when the recombinant protein production was induced with 1 mM IPTG. The protein expression was carried out at 37 °C for 5 h. Next, bacteria cells were harvested, and the pellet was frozen at −20 °C. […]
Consider `Cc1c(COc2cc(OCc3cccc(C#N)c3)c(CN3C[C@H](O)C[C@@H]3C(=O)O)cc2Cl)cccc1-c1ccc2c(c1)OCCO2` [BMS-1166], for which the ΔTm at 100 µM was 2.7 °C.

A further assay has as its target T1, PD-L1. Nature of the assay: biochemical. The following applies: read-out: DSF (°C). Also on record: gene CD274; ectodomain, PD-L1-long (amino acids 18–239); Differential scanning fluorimetry, melting temperature shift of PD-L1 ectodomain (PD-L1-long). This is another data set of the same source. As to the method:
Fragments were screened in both techniques as singletons. […] The fragments were tested at a final concentration of 0.1 mM. […] DSF hits were defined as fragments, resulting in an increase or decrease in melting point of PD-L1 by at least 0.5 °C. […] Having the library in hand, we carried out screening using differential scanning fluorimetry and 1D NMR techniques. Previously, the fragment-based approach with a large library of compounds (>13 000) was tested on the PD-L1 V1 domain.[33] […] Therefore, instead of using a large fragment library, we assembled a focused library of fragments containing the biphenyl core extracted from known inhibitors. The obtained fragments were decorated with different substituents to test how these variations will affect the binding of biphenyl. The expression and purification protocol relate to work on PD-L1-short published earlier by us. Briefly, Escherichia coli strain BL21 (DE3) was transformed with a pET-21b plasmid carrying the PD-L1-long gene (amino acids 18–239). The bacteria were cultured in LB at 37 °C until OD600 nm of 0.8 when the recombinant protein production was induced with 1 mM IPTG. The protein expression was carried out at 37 °C for 5 h. Next, bacteria cells were harvested, and the pellet was frozen at −20 °C. […] Inclusion bodies were collected by centrifugation, suspended in 1× PBS, and then sonicated to finally collect them again by centrifugation. Then, the inclusion bodies were washed twice with 50 mM Tris-HCl, pH 8.0, containing 200 mM NaCl, 10 mM EDTA, 10 mM 2- mercaptoethanol, and 0.5% Triton X-100, followed by a single wash with the same buffer without Triton X-100.
As for `Cc1c(/C=C/C#N)cccc1-c1ccc2c(c1)OCCO2` [TAH38], the ΔTm at 100 µM came to 0.9 °C. In the case of `OCc1cccc(-c2ccc3c(c2)OCCO3)c1Cl` [TAH4], the ΔTm at 100 µM was found to be 0.5 °C. For the compound `Oc1cccc(-c2cccc(Br)c2)c1` [TAH11], the ΔTm at 100 µM was found to be 0.1 °C. The same measure, in the same setting: the figure for `Cc1c(N)cccc1-c1ccc2c(c1)OCCO2` [TAH16] is 0.5 °C. Same read-out and setting: the figure for `COc1ccc(-c2cccc(CO)c2N)cc1` [TAH58] is 0.1 °C; for `Nc1c(-c2ccc3c(c2)OCCO3)cccc1-c1ccc2c(c1)OCCO2` [TAH46] it is 0.5 °C.

As to `Cc1cccc(N)c1-c1ccc2c(c1)OCCO2` [TAH55], the ΔTm at 100 µM turned out to be 0.3 °C. The same measure, in the same setting: the figure for `Cc1c(N)cccc1-c1ccccn1` [TAH28] is 0.3 °C. On the same count and under the same terms, with `Cc1c(N)cccc1-c1cccc(N)c1C` [TAH35] the figure was -1.2 °C; with `Nc1c(CO)cccc1-c1ccc2c(c1)OCCO2` [TAH6], 0.3 °C; with `Oc1cccc(-c2cccc(F)c2)c1` [TAH41], 1.1 °C. The same measure, in the same setting: the figure for `Cc1c(N)cccc1-c1ccccc1` [TAH39] is 0.3 °C; for `Cc1c(-c2ccc(CO)cc2)cccc1-c1ccc(CO)cc1` [TAH50] it is 0.3 °C. With `Cc1c(-c2ccc3c(c2)OCCO3)cccc1N1CCCCC1=O` [TAH17], the ΔTm at 100 µM stood at 0.3 °C. Same read-out and setting: the figure for `Cc1c(-c2cccc([N+](=O)[O-])c2C)cccc1[N+](=O)[O-]` [TAH34] is 0.3 °C; for `Cc1c(CO)cccc1-c1cccc2c1OCCN2C` [TAH61] it is -1.1 °C; for `OCc1cccc(-c2cccnc2)c1Cl` [TAH5] it is 0.3 °C. Take `Cc1cc(Br)cc(-c2ccc3c(c2)OCCO3)c1` [TAH60]: the ΔTm at 100 µM turned out to be 0.3 °C. The same measure, in the same setting: with `CNc1cccc(-c2ccc3c(c2)OCCO3)c1` [TAH56] the figure was 0.1 °C. The same measure, in the same setting: with `Nc1c(C(=O)O)cccc1-c1ccccc1` [TAH7] the figure was 0.3 °C; with `COC(=O)c1cncc(-c2cccc(CO)c2C)c1` [TAH2], 0.1 °C.

`O=C1CCc2cc(-c3ccc4c(c3)OCCO4)ccc21` [TAH30]: the ΔTm at 100 µM worked out at 0.1 °C.

Turning to `Nc1c(Br)cccc1-c1ccc(CO)cc1` [TAH44], the ΔTm at 100 µM worked out at 0.5 °C.

Consider `COC(=O)c1cccc(-c2ccccc2)c1N` [TAH8], for which the ΔTm at 100 µM amounted to 0.3 °C. Same read-out and setting: the figure for `Cc1c(CO)cccc1-c1cccc(CO)c1Br` [TAH3] is 0.3 °C; for `COC(=O)c1cccc(-c2ccccc2)c1Br` [TAH9] it is 0.5 °C.

Consider `Nc1c(Br)cccc1-c1ccc2c(c1)OCCO2` [TAH59], for which the ΔTm at 100 µM is 0.3 °C. Take `COc1cccc(-c2cccc(O)c2)c1` [TAH14]: the ΔTm at 100 µM was found to be 0.5 °C. The same measure, in the same setting: the figure for `Nc1c(CO)cccc1-c1ccncc1` [TAH57] is 0.1 °C. For `Cc1c(C#N)cccc1-c1cccc(C#N)c1C` [TAH37], the ΔTm at 100 µM was determined as 0.1 °C. For the compound `Cc1ccc(-c2ccc3c(c2)OCCO3)c(N)c1` [TAH53], the ΔTm at 100 µM came to 0.7 °C. On the same count and under the same terms, with `Cc1c(N)cccc1-c1ccc(C#N)cc1` [TAH29] the figure was 0.1 °C; with `O=C(O)c1cccc(-c2ccccc2)c1Br` [TAH40], 0.3 °C.

(Values after article PMC9486809, “Exploring the Surface of the Ectodomain of the PD-L1 Immune Checkpoint with Small-Molecule Fragments” (ACS Chemical Biology, 2022).)
